Organism: Rattus norvegicus
Assay: DrugMatrix - Regimen: Daily Repeat
Type: toxicity, organism-based, Sprague-Dawley
Design: regimen Daily Repeat, gender Male, age 6-8 weeks
Settings: in vivo, po, route oral GAVAGE, vehicle 100 % WATER; for BASOPHIL / EOSINOPHIL / ERYTHROCYTE COUNT / HEMATOCRIT / HEMOGLOBIN / LEUKOCYTE COUNT / LYMPHOCYTE / MEAN CORPUSCULAR HEMOGLOBIN / MEAN CORPUSCULAR HEMOGLOBIN CONCENTRATION / MEAN CORPUSCULAR VOLUME / MONOCYTE / NEUTROPHIL / PLATELET COUNT: tissue Blood; for ALANINE AMINOTRANSFERASE / ALBUMIN / ALKALINE PHOSPHATASE / ASPARTATE AMINOTRANSFERASE / BLOOD UREA NITROGEN / CHLORIDE / CHOLESTEROL / CREATINE PHOSPHOKINASE / CREATININE / GLUCOSE / PHOSPHORUS / POTASSIUM / SODIUM / TOTAL BILIRUBIN / TOTAL PROTEIN: tissue Plasma
[1] = 0 mg/kg, 72 h, dose level Control, time 3 day
[2] = 0 mg/kg, 120 h, dose level Control, time 5 day
[3] = 8 mg/kg, 72 h, dose level Low, time 3 day
[4] = 8 mg/kg, 120 h, dose level Low, time 5 day
[5] = 29 mg/kg, 72 h, dose level High, time 3 day
[6] = 29 mg/kg, 120 h, dose level High, time 5 day

SMILES: CCN[C@@H](C)Cc1cccc(C(F)(F)F)c1 [DEXFENFLURAMINE]
- BASOPHIL [1]: 0%
- EOSINOPHIL [1]: 0.5%
- ERYTHROCYTE COUNT [1]: 5.8 x10E6/uL
- HEMATOCRIT [1]: 35.07%
- HEMOGLOBIN [1]: 14.12 G/DL
- LEUKOCYTE COUNT [1]: 13.7 x10E3/uL
- LYMPHOCYTE [1]: 82.33%
- MEAN CORPUSCULAR HEMOGLOBIN [1]: 24.38 pg
- MEAN CORPUSCULAR HEMOGLOBIN CONCENTRATION [1]: 40.28 G/DL
- MEAN CORPUSCULAR VOLUME [1]: 60.52 fL
- MONOCYTE [1]: 2.67%
- NEUTROPHIL [1]: 14.5%
- PLATELET COUNT [1]: 911.5 x10E3/uL
- ALANINE AMINOTRANSFERASE [1]: 36.83 u/L
- ALBUMIN [1]: 3.75 G/DL
- ALKALINE PHOSPHATASE [1]: 399.83 u/L
- ASPARTATE AMINOTRANSFERASE [1]: 66 u/L
- BLOOD UREA NITROGEN [1]: 14.67 mg/dL
- CHLORIDE [1]: 101.67 MEQ/L
- CHOLESTEROL [1]: 66.33 mg/dL
- CREATINE PHOSPHOKINASE [1]: 139.5 u/L
- CREATININE [1]: 0.92 mg/dL
- GLUCOSE [1]: 175 mg/dL
- PHOSPHORUS [1]: 11.42 mg/dL
- POTASSIUM [1]: 7.03 MEQ/L
- SODIUM [1]: 148.5 MEQ/L
- TOTAL BILIRUBIN [1]: 1.13 mg/dL
- TOTAL PROTEIN [1]: 6.87 G/DL
- BASOPHIL [2]: 0%
- EOSINOPHIL [2]: 0.2%
- ERYTHROCYTE COUNT [2]: 6.02 x10E6/uL
- HEMATOCRIT [2]: 36.48%
- HEMOGLOBIN [2]: 14.38 G/DL
- LEUKOCYTE COUNT [2]: 12.34 x10E3/uL
- LYMPHOCYTE [2]: 83%
- MEAN CORPUSCULAR HEMOGLOBIN [2]: 23.92 pg
- MEAN CORPUSCULAR HEMOGLOBIN CONCENTRATION [2]: 39.44 G/DL
- MEAN CORPUSCULAR VOLUME [2]: 60.66 fL
- MONOCYTE [2]: 3%
- NEUTROPHIL [2]: 13.8%
- PLATELET COUNT [2]: 1190.6 x10E3/uL
- ALANINE AMINOTRANSFERASE [2]: 43 u/L
- ALBUMIN [2]: 3.73 G/DL
- ALKALINE PHOSPHATASE [2]: 393 u/L
- ASPARTATE AMINOTRANSFERASE [2]: 62.33 u/L
- BLOOD UREA NITROGEN [2]: 16.33 mg/dL
- CHLORIDE [2]: 101.67 MEQ/L
- CHOLESTEROL [2]: 65.5 mg/dL
- CREATINE PHOSPHOKINASE [2]: 130.67 u/L
- CREATININE [2]: 0.58 mg/dL
- GLUCOSE [2]: 180.67 mg/dL
- PHOSPHORUS [2]: 11.28 mg/dL
- POTASSIUM [2]: 7.05 MEQ/L
- SODIUM [2]: 148.17 MEQ/L
- TOTAL BILIRUBIN [2]: 0.72 mg/dL
- TOTAL PROTEIN [2]: 6.83 G/DL
- BASOPHIL [3]: 0%
- EOSINOPHIL [3]: 0%
- ERYTHROCYTE COUNT [3]: 5.97 x10E6/uL
- HEMATOCRIT [3]: 35.8%
- HEMOGLOBIN [3]: 14.33 G/DL
- LEUKOCYTE COUNT [3]: 8.6 x10E3/uL
- LYMPHOCYTE [3]: 86.33%
- MEAN CORPUSCULAR HEMOGLOBIN [3]: 24.03 pg
- MEAN CORPUSCULAR HEMOGLOBIN CONCENTRATION [3]: 40.07 G/DL
- MEAN CORPUSCULAR VOLUME [3]: 60 fL
- MONOCYTE [3]: 3.67%
- NEUTROPHIL [3]: 10%
- PLATELET COUNT [3]: 1151 x10E3/uL
- ALANINE AMINOTRANSFERASE [3]: 34.67 u/L
- ALBUMIN [3]: 3.8 G/DL
- ALKALINE PHOSPHATASE [3]: 406.67 u/L
- ASPARTATE AMINOTRANSFERASE [3]: 62.67 u/L
- BLOOD UREA NITROGEN [3]: 16 mg/dL
- CHLORIDE [3]: 100.33 MEQ/L
- CHOLESTEROL [3]: 70 mg/dL
- CREATINE PHOSPHOKINASE [3]: 167.33 u/L
- CREATININE [3]: 0.77 mg/dL
- GLUCOSE [3]: 174 mg/dL
- PHOSPHORUS [3]: 11.97 mg/dL
- POTASSIUM [3]: 6.93 MEQ/L
- SODIUM [3]: 148.67 MEQ/L
- TOTAL BILIRUBIN [3]: 0.67 mg/dL
- TOTAL PROTEIN [3]: 6.7 G/DL
- BASOPHIL [4]: 0%
- EOSINOPHIL [4]: 0%
- ERYTHROCYTE COUNT [4]: 6.17 x10E6/uL
- HEMATOCRIT [4]: 36.97%
- HEMOGLOBIN [4]: 14.47 G/DL
- LEUKOCYTE COUNT [4]: 12.77 x10E3/uL
- LYMPHOCYTE [4]: 91.67%
- MEAN CORPUSCULAR HEMOGLOBIN [4]: 23.5 pg
- MEAN CORPUSCULAR HEMOGLOBIN CONCENTRATION [4]: 39.13 G/DL
- MEAN CORPUSCULAR VOLUME [4]: 60 fL
- MONOCYTE [4]: 1.67%
- NEUTROPHIL [4]: 6.67%
- PLATELET COUNT [4]: 1202.33 x10E3/uL
- ALANINE AMINOTRANSFERASE [4]: 37 u/L
- ALBUMIN [4]: 3.83 G/DL
- ALKALINE PHOSPHATASE [4]: 391.67 u/L
- ASPARTATE AMINOTRANSFERASE [4]: 62.67 u/L
- BLOOD UREA NITROGEN [4]: 14 mg/dL
- CHLORIDE [4]: 102.67 MEQ/L
- CHOLESTEROL [4]: 62.67 mg/dL
- CREATINE PHOSPHOKINASE [4]: 107 u/L
- CREATININE [4]: 0.6 mg/dL
- GLUCOSE [4]: 196.67 mg/dL
- PHOSPHORUS [4]: 12.6 mg/dL
- POTASSIUM [4]: 7.37 MEQ/L
- SODIUM [4]: 148.67 MEQ/L
- TOTAL BILIRUBIN [4]: 0.53 mg/dL
- TOTAL PROTEIN [4]: 7 G/DL
- BASOPHIL [5]: 0%
- EOSINOPHIL [5]: 0.33%
- ERYTHROCYTE COUNT [5]: 6.47 x10E6/uL
- HEMATOCRIT [5]: 37.87%
- HEMOGLOBIN [5]: 15.5 G/DL
- LEUKOCYTE COUNT [5]: 12.63 x10E3/uL
- LYMPHOCYTE [5]: 88%
- MEAN CORPUSCULAR HEMOGLOBIN [5]: 24.03 pg
- MEAN CORPUSCULAR HEMOGLOBIN CONCENTRATION [5]: 41 G/DL
- MEAN CORPUSCULAR VOLUME [5]: 58.6 fL
- MONOCYTE [5]: 2%
- NEUTROPHIL [5]: 9.67%
- PLATELET COUNT [5]: 1385.67 x10E3/uL
- ALANINE AMINOTRANSFERASE [5]: 27 u/L
- ALBUMIN [5]: 3.7 G/DL
- ALKALINE PHOSPHATASE [5]: 285.67 u/L
- ASPARTATE AMINOTRANSFERASE [5]: 55.33 u/L
- BLOOD UREA NITROGEN [5]: 13 mg/dL
- CHLORIDE [5]: 102 MEQ/L
- CHOLESTEROL [5]: 63.67 mg/dL
- CREATINE PHOSPHOKINASE [5]: 119.67 u/L
- CREATININE [5]: 0.7 mg/dL
- GLUCOSE [5]: 160 mg/dL
- PHOSPHORUS [5]: 10.57 mg/dL
- POTASSIUM [5]: 6.47 MEQ/L
- SODIUM [5]: 151 MEQ/L
- TOTAL BILIRUBIN [5]: 0.47 mg/dL
- TOTAL PROTEIN [5]: 6.57 G/DL
- BASOPHIL [6]: 0%
- EOSINOPHIL [6]: 0%
- ERYTHROCYTE COUNT [6]: 6.71 x10E6/uL
- HEMATOCRIT [6]: 38.87%
- HEMOGLOBIN [6]: 15.1 G/DL
- LEUKOCYTE COUNT [6]: 11.3 x10E3/uL
- LYMPHOCYTE [6]: 92.67%
- MEAN CORPUSCULAR HEMOGLOBIN [6]: 22.53 pg
- MEAN CORPUSCULAR HEMOGLOBIN CONCENTRATION [6]: 38.9 G/DL
- MEAN CORPUSCULAR VOLUME [6]: 58 fL
- MONOCYTE [6]: 1.67%
- NEUTROPHIL [6]: 5.67%
- PLATELET COUNT [6]: 1314.33 x10E3/uL
- ALANINE AMINOTRANSFERASE [6]: 33.67 u/L
- ALBUMIN [6]: 3.67 G/DL
- ALKALINE PHOSPHATASE [6]: 333.67 u/L
- ASPARTATE AMINOTRANSFERASE [6]: 57.67 u/L
- BLOOD UREA NITROGEN [6]: 15 mg/dL
- CHLORIDE [6]: 101 MEQ/L
- CHOLESTEROL [6]: 66.67 mg/dL
- CREATINE PHOSPHOKINASE [6]: 104.67 u/L
- CREATININE [6]: 0.6 mg/dL
- GLUCOSE [6]: 197.33 mg/dL
- PHOSPHORUS [6]: 12.47 mg/dL
- POTASSIUM [6]: 6.47 MEQ/L
- SODIUM [6]: 149.67 MEQ/L
- TOTAL BILIRUBIN [6]: 0.33 mg/dL
- TOTAL PROTEIN [6]: 6.57 G/DL

From ChEMBL document CHEMBL3885881, “DrugMatrix”
